Measurements published in EP4167996B1, “METAMIZOLE DERIVATIVES FOR THE PREVENTION AND TREATMENT OF PULMONARY HYPERTENSION” (Preißner, Robert, priority 2020, dated 2021).

System: isoliert-perfundierte Mauslungen
Assay: Hypoxic pulmonary vasoconstriction in the isolated perfused mouse lung (IPL)
Parameters: species or system C57BU6J Mäuse
Details: control ΔPAP ca. 4 cmH2O, P<0,005
Description: Hypoxisch pulmonale Vasokonstriktion an der isoliert-perfundierten Mauslunqe (IPL)
Für die IPL wurden 10-12 Wochen alte C57BU6J Mäuse verwendet. Zu Beginn wurden die Mäuse anästhesiert (Ketamin 100mg/kg Körpergewicht (KG); Xylazin 20mg/kg KG) und mittels zervikaler Dislokation getötet. Im Anschluss wurde eine Tracheotomie durchgeführt und die Lunge in situ positiv mit normoxischem (20% O2; 5% CO2; 75% N2) Gas ventiliert (Tidalvolumen: 100 µl; Atemzüge pro Minute: Körpergewicht x 10). Anschließend wurde der Bauchraum eröffnet, das Diaphragma durchtrennt und Heparin (100 U) in den rechten Ventrikel injiziert. Nach der Eröffnung des Thorax mittels Sternotomie wurde sowohl die Pulmonalarterie als auch der linke Ventrikel kanüliert und die Lunge mit auf 37°C temperierter, gepufferter Salzlösung nach Hanks, angereichert mit Ca^2+, Mg^2+ und 10% FBS, perfundiert. Je nach Versuchsgruppe wurde das Perfusat zusätzlich mit einer Gewichts-entsprechenden Menge an Metamizol, 4-Aminoantipyrin oder 4-Methylamioantipyrin versetzt. Sobald sich der pulmonalarterielle Druck (PAP) stabilisiert hatte, wurden die Basalwerte aufgezeichnet und anschließend die Mauslunge mit hypoxischem Gas (1% O2; 5% CO2; 94% N2) ventiliert. Veränderungen des PAP wurden mithilfe eines Drucksensors P75 (Havartus apparatus) detektiert, und geben das Ausmaß der hypoxischen Vasokonstriktion der Lunge wieder.

CNc1c(C)n(C)n(-c2ccccc2)c1=O [4-Methylaminoantipyrin]
Reduktion des ΔPAP in Abhängigkeit der Konzentration (50-200 mg/kg KG in perfusate, hypoxic gas (1% O2; 5% CO2; 94% N2), Fig. 2): Dosis-abhängigen Reduktion des ΔPAP | inhibition at 200 mg/kg (Mus musculus, 200 mg/kg KG in perfusate, ventilation switched from normoxic to hypoxic gas (1% O2; 5% CO2; 94% N2), Fig. 1, read-out: Reduktion des ΔPAP nach Umschalten auf Hypoxie): 70%
